Converted amounts (≈) assume the structure as drawn. “And” between values parts separate entries of the source, which are not always exact repeats. Identical values can stand only once. Counter-ions that a name gives are not always drawn. Like-named read-outs stand apart in the source and are kept apart here. *1 amine or outer side, *2 acyl side, *3 side chain or, on linkers, in order; H or OH if unused. Where a SMILES comes first, the peptide text is derived from it. Bridges are numbered along the chain shown (N, C = ends). Roman numbers before positions name the chains, in order. [ ]: non-standard residue; d: D form. Actinocin(9to1) = Cc1c2oc3c(C)ccc(C(=O)[*:1])c3nc-2c(C(=O)[*:2])c(N)c1=O; NMeV = CN[C@H](C(=O)O)C(C)C; Sar = CNCC(=O)O
What was measured:
[1] = test system: H. influenzae; assay: microbe, parasite or virus in culture; assay type: cell-based; conditions: Haemophilus influenzae, 24 h
[2] = test system: L. pneumophila; assay: microbe, parasite or virus in culture; assay type: cell-based; conditions: Legionella pneumophila, 24 h
[3] = test system: S. pneumoniae; assay: microbe, parasite or virus in culture; assay type: cell-based; conditions: Streptococcus pneumoniae, 24 h
[4] = test system: S. aureus; assay: microbe, parasite or virus in culture; assay type: cell-based; conditions: Staphylococcus aureus, 24 h
[5] = test system: H. influenzae, L. pneumophila, S. pneumoniae, and S. aureus; assay: organism not typed; assay type: cell-based
[6] = test system: H. influenzae; assay type: cell-based, Haemophilus influenzae
[7] = test system: L. pneumophila; assay type: cell-based, Legionella pneumophila
[8] = test system: S. pneumoniae; assay type: cell-based, Streptococcus pneumoniae
[9] = test system: S. aureus; assay type: cell-based, Staphylococcus aureus
[10] = test system: H. influenzae, L. pneumophila, S. pneumoniae, and S. aureus; assay type: cell-based; conditions: strain not stated
[11] = test system: NF-κB; assay: NF-κB inhibition assay (LPS-stimulated) in HBEC3-KT; assay type: cell-based; conditions: Homo sapiens, 24 h, read-out: NF-κB Inhibition at 24 h IC50 ± SEM
[12] = test system: NF-κB; assay: NF-κB inhibition assay (LPS-stimulated) in MRC-5; assay type: cell-based; conditions: Homo sapiens, read-out: NF-κB Inhibition at 24 h IC50 ± SEM
[13] = test system: NF-κB; assay: NF-κB inhibition assay (LPS-stimulated) in THP-1; assay type: cell-based; conditions: Homo sapiens, read-out: NF-κB Inhibition at 24 h IC50 ± SEM
[14] = test system: C. violaceum; assay: Anti-biofilm activity on C. violaceum; assay type: cell-based, Chromobacterium violaceum
[15] = test system: C. violaceum; assay type: cell-based, Chromobacterium violaceum; conditions: for % of Violacein Inhibition: at the Anti-QS concentration (compound 3 at 0.94 µM, compound 4 at 1.16 µM)
[16] = WST-1 cytotoxicity (viability) assay, control cell line; conditions: human
[17] = test system: Hep3B cells; parameters: method as in PMID 37423053; conditions: cited from earlier work
[18] = test system: Huh7 cells; parameters: method as in PMID 37423053; conditions: cited from earlier work
[19] = WST-1 cytotoxicity assay, cell line not singled out; conditions: human
[20] = test system: RAW 264.7 cells; parameters: method as in doi:10.1016/j.phytol.2020.01.005; conditions: read-out: IC50, inhibition of nitric oxide (NO) production; cited from earlier work
[21] = WST-1 cytotoxicity (viability) assay; conditions: human, WST-1, 24 h, HBEC3-KT
[22] = WST-1 cytotoxicity (viability) assay; conditions: human, WST-1, 24 h, MRC-5
[23] = test system: H. influenzae, L. pneumophila, S. pneumoniae, and S. aureus; assay type: cell-based; conditions: strain not stated; remark: listed apart in the source
[24] = value given in the method for the compounds
[25] = value given in the method for the extracts
[26] = MRC5, MRC-5, LPS-stimulated, 24 h
[27] = range over S. pneumoniae and S. aureus Gram-positive bacteria

SMILES	MIC [1]	MIC [2]	MIC [3]	MIC [4]	Quorum Sensing Inhibition at 24 h Anti-QS ± SEM [6]	Quorum Sensing Inhibition at 24 h Anti-QS ± SEM [7]	Quorum Sensing Inhibition at 24 h Anti-QS ± SEM [8]	Quorum Sensing Inhibition at 24 h Anti-QS ± SEM [9]	IC50 ([11]; LPS-stimulated) [µM]	IC50 [12, 26] [µM]	IC50 ([13]; THP-1, LPS-stimulated, 24 h) [µM]	BIC [14] [µM]	Anti-QS [15] [µM]	% of Violacein Inhibition [15] [%]	CC50 at 24 h [16] [µM]	further results
CC1COc2c(N3CCN(C)CC3)c(F)cc3c(=O)c(C(=O)O)cn1c23 (centres unmarked) [OFX, Ofloxacin, reference compound]	12.3 µg/mL and 28.4 µM	11.3 µg/mL and 26.8 µM	9.03 µg/mL and 25.1 µM	10 µg/mL and 24.1 µM	–	–	–	–	–	–	–	–	–	–	–	MIC ([5]; read-out: MIC of positive control, for the compounds, strain not stated or range over the four strains): 27.7 µM; MIC ([5]; read-out: MIC of positive control, value given in the method for the extracts, strain not stated): 10 µg/mL
O=C1C=C(Br)/C(=C/Br)O1 [Furanone C-30, (Z)-4-Bromo-5-(bromomethylene)-2(5H)-furanone, reference compound]	–	–	–	–	11.81 ± 0.05 μM and 3.21 ± 0.02 μg/mL	11.59 ± 0.03 μM and 3.03 ± 0.08 μg/mL	12.03 ± 0.08 μM and 3.44 ± 0.06 μg/mL	12.67 ± 0.02 μM and 3.77 ± 0.04 μg/mL	–	–	–	–	–	–	–	Anti-QS value of positive control [10, 24]: 11.81 µM; Anti-QS value of positive control [10, 25]: 3 µg/mL
CC(C)(O)C1=CC2=CCC3[C@](C)(CCC[C@@]3(C)C(=O)O)C2CC1=O (some centres unmarked) [Compound 1, 15-Hydroxy-12-oxo-abietic acid]	28.3 µM (≈ 9.42 µg/mL)	20.2 µM (≈ 6.72 µg/mL)	4.14 µM (≈ 1.38 µg/mL)	7.88 µM (≈ 2.62 µg/mL)	4.64 ± 0.09 µM	2.44 ± 0.09 µM	9.89 ± 0.04 µM	12.24 ± 0.08 µM	27.9 ± 0.89	39.01 ± 0.22	43.4 ± 0.73	11.31 ± 0.07	4.83 ± 0.05	20.45	88.4	–
CC(C)C1=CC2=CC[C@@H]3[C@](C)(CCC[C@@]3(C)C(=O)O)[C@H]2C[C@@H]1O [Compound 2, 12α-Hydroxyabietic acid]	23.5 µM (≈ 7.47 µg/mL)	17.2 µM (≈ 5.49 µg/mL)	3.31 µM (≈ 1.05 µg/mL)	5.42 µM (≈ 1.73 µg/mL)	3.19 ± 0.04 µM	1.95 ± 0.07 µM	8.14 ± 0.05 µM	11.81 ± 0.07 µM	21.9 ± 0.23	26.9 ± 0.61	32.6 ± 0.69	7.54 ± 0.05	3.55 ± 0.06	48.88	84.3	–
CC1=C2C=C3CCC4C(C)(C)CCC[C@]4(C)C3CC2OC1=O (single isomer, unassigned; (-)) [Compound 3, (−)-Jolkinolide E]	4.89 µM (≈ 1.47 µg/mL)	1.71 µM (≈ 0.514 µg/mL)	0.53 µM (≈ 0.159 µg/mL)	1.09 µM (≈ 0.327 µg/mL)	0.64 ± 0.01 µM	0.31 ± 0.03 µM	3.01 ± 0.07 µM	4.88 ± 0.09 µM	18 ± 0.37	23.96 ± 0.21	29.4 ± 0.48	1.62 ± 0.06	0.94 ± 0.03	78.13	71.2	MIC [5, 27]: 0.53 to 1.09 µM; cytotoxicity [17]: 37.23 µM; cytotoxicity [18]: 39.53 µM; CC50 at 24 h [19]: > 70 µM
CC(C)(O)c1ccc2c(c1)CC[C@H]1[C@](C)(C(=O)O)CCC[C@]21C [Compound 4, 15-Hydroxydehydroabietic acid]	15.4 µM (≈ 4.88 µg/mL)	9.83 µM (≈ 3.11 µg/mL)	2.06 µM (≈ 0.652 µg/mL)	4.06 µM (≈ 1.28 µg/mL)	2.39 ± 0.03 µM	1.21 ± 0.04 µM	7.78 ± 0.01 µM	10.08 ± 0.08 µM	10.8 ± 0.69	17.4 ± 0.82	23.4 ± 0.71	5.81 ± 0.02	1.16 ± 0.06	71.60	78.9	MIC [5, 27]: 2.06 to 4.06 µM; IC50 [20]: 50.9 µM
O=C(O)c1cn(C2CC2)c2cc(N3CCNCC3)c(F)cc2c1=O [CIP, Ciprofloxacin hydrochloride, reference compound]	–	–	–	–	–	–	–	–	–	–	–	2.13 ± 0.01	1.51 ± 0.01	71.68	–	violacein inhibitory concentration (CIV) ([15]; reference standard): 1.51 µM
CC1=C(O)C(=O)C=C2C1=CC=C1[C@@]2(C)CC[C@@]2(C)[C@@H]3C[C@](C)(C(=O)O)CC[C@]3(C)CC[C@]12C [CEL, Celastrol, reference compound]	–	–	–	–	–	–	–	–	–	–	–	–	–	–	–	IC50 [11]: 7.15 µM and 3.24 µg/mL; IC50 ([12]; MRC5, 24 h): 7.41 µM and 3.27 µg/mL; IC50 ([13]; THP-1, 24 h): 7.63 µM and 3.34 µg/mL
Cc1c2oc3c(C)ccc(C(=O)N[C@@H]4C(=O)N[C@H](C(C)C)C(=O)N5CCC[C@H]5C(=O)N(C)CC(=O)N(C)[C@@H](C(C)C)C(=O)O[C@@H]4C)c3nc-2c(C(=O)N[C@@H]2C(=O)N[C@H](C(C)C)C(=O)N3CCC[C@H]3C(=O)N(C)CC(=O)N(C)[C@@H](C(C)C)C(=O)O[C@@H]2C)c(N)c1=O [ACTD, Actinomycin D, reference compound] (I: T[dV]P[Sar][NMeV] / II: T[dV]P[Sar][NMeV]; ester I:1-I:C, II:1-II:C; linker I:N-II:N via Actinocin(9to1))	–	–	–	–	–	–	–	–	–	–	–	–	–	–	–	CC50 at 24 h [21]: 0.014 µg/mL and 10 nM; CC50 at 24 h [22]: 0.017 µg/mL and 10 nM; CC50 at 24 h ([19]; CC50, cell line not singled out, for the compounds): 0.008 µM; CC50 at 24 h ([19]; CC50 of positive control, value given in the method for the extracts, cell line not stated): 0.01 µg/mL; CC50 at 24 h ([16]; Viability (CC50), WST-1, 24 h, THP-1): 0.019 µg/mL and 10 nM
N=C(NCCCCCCNC(=N)NC(=N)Nc1ccc(Cl)cc1)NC(=N)Nc1ccc(Cl)cc1.O=C(O)[C@H](O)[C@@H](O)[C@H](O)[C@H](O)CO.O=C(O)[C@H](O)[C@@H](O)[C@H](O)[C@H](O)CO [CHG, chlorhexidine digluconate]	–	–	–	–	–	–	–	–	–	–	–	–	–	–	–	BIC of reference control [23, 24]: 2.23 µM; BIC of reference control [23, 25]: 2000 µg/mL
